Measurements as given in ChEMBL document CHEMBL6096630, “Enhancing therapeutic efficacy in homologous recombination-proficient pancreatic cancer via the combination of PARP1-PROTAC and a BRD4 inhibitor” (Bioorg Med Chem, 2024).
The source made the active and inactive calls. No cut-off for these calls is given here.

Tests used:
[1] = tested on: PANC-1; experiment: Induction of cell cycle arrest in human PANC-1 cells assessed as decrease in cyclin D1 level at 2 uM incubated for 24 hrs in presence of JQ1 by […]; type: functional
[2] = target: T1, Protein cereblon/Poly [ADP-ribose] polymerase 1 (Homo sapiens, UniProt P09874+Q96SW2); experiment: PROTAC activity at CRBN/PARP1 in human BXPC-3 cells assessed as induction of PARP1 degradation incubated for 24 hrs by Western blot analysis; type: cell-based
[3] = target: T1, Protein cereblon/Poly [ADP-ribose] polymerase 1; experiment: PROTAC activity at CRBN/PARP1 in human BXPC-3 cells assessed as induction of PARP1 degradation at 2 uM incubated for 24 hrs by immunofluorescence based analysis; type: cell-based
Target sequence in this assay (P09874 2-1014 limits assumed): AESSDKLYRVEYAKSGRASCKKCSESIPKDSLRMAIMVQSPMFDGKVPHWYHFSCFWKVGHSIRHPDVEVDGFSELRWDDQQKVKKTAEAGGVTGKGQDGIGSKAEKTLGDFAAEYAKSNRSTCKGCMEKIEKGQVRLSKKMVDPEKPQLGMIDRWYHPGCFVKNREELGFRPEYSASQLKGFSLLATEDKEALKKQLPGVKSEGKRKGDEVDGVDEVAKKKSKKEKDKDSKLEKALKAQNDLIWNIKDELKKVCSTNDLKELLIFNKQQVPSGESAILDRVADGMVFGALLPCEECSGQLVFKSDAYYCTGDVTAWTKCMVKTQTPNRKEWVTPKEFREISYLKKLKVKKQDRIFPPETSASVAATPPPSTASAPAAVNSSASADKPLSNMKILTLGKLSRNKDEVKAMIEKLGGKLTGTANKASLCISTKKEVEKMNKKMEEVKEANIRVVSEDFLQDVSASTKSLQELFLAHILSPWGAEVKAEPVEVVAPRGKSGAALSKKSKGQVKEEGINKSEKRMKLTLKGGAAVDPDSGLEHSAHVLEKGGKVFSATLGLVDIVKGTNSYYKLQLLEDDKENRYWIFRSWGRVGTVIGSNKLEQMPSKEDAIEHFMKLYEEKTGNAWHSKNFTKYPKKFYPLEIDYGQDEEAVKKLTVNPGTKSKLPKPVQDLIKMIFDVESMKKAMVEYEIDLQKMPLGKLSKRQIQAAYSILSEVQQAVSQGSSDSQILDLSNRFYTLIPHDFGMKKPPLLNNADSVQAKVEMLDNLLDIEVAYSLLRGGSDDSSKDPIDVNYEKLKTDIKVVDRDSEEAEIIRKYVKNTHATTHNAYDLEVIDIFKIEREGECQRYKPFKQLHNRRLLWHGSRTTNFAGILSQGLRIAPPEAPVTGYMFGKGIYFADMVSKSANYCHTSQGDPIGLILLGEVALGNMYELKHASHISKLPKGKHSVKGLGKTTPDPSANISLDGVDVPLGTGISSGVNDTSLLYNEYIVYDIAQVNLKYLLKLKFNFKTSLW
Target sequence in this assay (Q96SW2 whole entry partner): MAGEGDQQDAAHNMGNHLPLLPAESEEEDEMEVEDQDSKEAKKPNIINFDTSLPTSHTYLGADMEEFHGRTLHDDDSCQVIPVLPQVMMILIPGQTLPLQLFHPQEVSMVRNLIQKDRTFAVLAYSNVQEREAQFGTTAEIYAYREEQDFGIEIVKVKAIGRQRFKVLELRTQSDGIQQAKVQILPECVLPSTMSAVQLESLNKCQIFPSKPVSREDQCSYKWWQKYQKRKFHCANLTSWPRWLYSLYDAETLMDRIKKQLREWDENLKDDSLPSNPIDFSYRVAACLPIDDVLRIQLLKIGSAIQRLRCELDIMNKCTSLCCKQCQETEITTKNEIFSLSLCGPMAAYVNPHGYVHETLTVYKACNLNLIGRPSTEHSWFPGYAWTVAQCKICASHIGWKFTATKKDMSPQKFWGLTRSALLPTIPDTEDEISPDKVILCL

[4] = tested on: BXPC-3; experiment: Synergistic antiproliferative activity against human BXPC-3 cells expressing wild-type BRCA assessed as inhibition of cell viability incubated for 5 days in presence of JQ1 by CCK8 assay; type: functional, cell-based; conditions: time 5.0 day
[5] = tested on: PANC-1; experiment: Induction of DNA damage in human PANC-1 cells assessed as increase in gamma-H2AX level at 2 uM in presence of JQ1 by immunofluorescence based analysis; type: functional, cell-based
[6] = target: T1, Protein cereblon/Poly [ADP-ribose] polymerase 1; experiment: PROTAC activity at CRBN/PARP1 in human PANC-1 cells assessed as induction of PARP1 degradation incubated for 24 hrs by Western blot analysis; type: cell-based
[7] = tested on: PANC-1; experiment: Induction of apoptosis in human PANC-1 cells assessed as increase in cleaved caspase-3 level at 2 uM incubated for 48 hrs in presence of JQ1 by Western blot analysis; type: functional, cell-based
[8] = tested on: PANC-1; experiment: Induction of DNA damage in human PANC-1 cells assessed as decrease in BRCA1 level at 1 uM in presence of OL by Western blot analysis; type: functional, cell-based
[9] = Toxicity in BALB/c mouse xenografted with human PANC-1 cells assessed as drug tolerance at 20 mg/kg, ip for 4 weeks administered for 5 days consecutively and 2 days without treatment on every week in presence of OL; type: organism-based; conditions: in vivo, 672 h
[10] = tested on: PANC-1; experiment: Induction of apoptosis in human PANC-1 cells assessed as necrotic cells at 1 uM incubated for 48 hrs by Annexin V-FITC/PI staining based flow cytometry (reference value: 3.09 %); type: functional
[11] = tested on: PANC-1; experiment: Induction of DNA damage in human PANC-1 cells assessed as increase in gamma-H2AX level at 1 uM in presence of OL by Western blot analysis; type: functional, cell-based
[12] = Toxicity in BALB/c mouse xenografted with human PANC-1 cells assessed as body weight loss at 20 mg/kg, ip for 4 weeks administered for 5 days consecutively and 2 days without treatment on every week in presence of OL; type: organism-based; conditions: in vivo, 672 h
[13] = tested on: PANC-1; experiment: Induction of cell cycle arrest in human PANC-1 cells assessed as accumulation at G1 phase at 1 uM incubated for 24 hrs by PI staining based flow cytometry (reference value: 51.70 %); type: functional
[14] = Toxicity in BALB/c mouse xenografted with human PANC-1 cells assessed as animal morbidity at 20 mg/kg, ip for 4 weeks administered for 5 days consecutively and 2 days without treatment on every week in presence of OL; type: organism-based; conditions: in vivo, 672 h
[15] = Toxicity in BALB/c mouse xenografted with human PANC-1 cells assessed as pathological changes in spleen at 20 mg/kg, ip for 4 weeks administered for 5 days consecutively and 2 days without treatment on every week by H and E staining based analysis; type: organism-based; conditions: in vivo, 672 h
[16] = tested on: PANC-1; experiment: Antitumor activity against human PANC-1 cells xenografted in BALB/c mouse assessed as reduction in tumor growth at 20 mg/kg, ip for 4 weeks administered for 5 days consecutively and 2 days without treatment on every week in presence of OL; type: functional, organism-based
[17] = tested on: PANC-1; experiment: Induction of DNA damage in human PANC-1 cells assessed as decrease in RAD51 level at 1 uM in presence of OL by Western blot analysis; type: functional, cell-based
[18] = tested on: PANC-1; experiment: Induction of apoptosis in human PANC-1 cells assessed as necrotic cells at 0.12 uM incubated for 48 hrs by Annexin V-FITC/PI staining based flow cytometry (reference value: 3.09 %); type: functional
[19] = tested on: PANC-1; experiment: Induction of apoptosis in human PANC-1 cells assessed as late apoptotic cells at 1 uM incubated for 48 hrs by Annexin V-FITC/PI staining based flow cytometry (reference value: 3.87 %); type: functional
[20] = Toxicity in BALB/c mouse xenografted with human PANC-1 cells assessed as pathological changes in spleen at 20 mg/kg, ip for 4 weeks administered for 5 days consecutively and 2 days without treatment on every week in presence of OL by H and E staining based analysis; type: organism-based; conditions: in vivo, 672 h
[21] = Toxicity in BALB/c mouse xenografted with human PANC-1 cells assessed as pathological changes in lung at 20 mg/kg, ip for 4 weeks administered for 5 days consecutively and 2 days without treatment on every week in presence of OL by H and E staining based analysis; type: organism-based; conditions: in vivo, 672 h
[22] = tested on: PANC-1; experiment: Induction of cell cycle arrest in human PANC-1 cells assessed as accumulation at G2 phase at 1 uM incubated for 24 hrs by PI staining based flow cytometry (reference value: 9.36 %); type: functional
[23] = tested on: PANC-1; experiment: Induction of cell cycle arrest in human PANC-1 cells assessed as accumulation at S phase at 0.12 uM incubated for 24 hrs by PI staining based flow cytometry (reference value: 38.94 %); type: functional
[24] = tested on: PANC-1; experiment: Induction of cell cycle arrest in human PANC-1 cells assessed as accumulation at G2 phase at 0.12 uM incubated for 24 hrs by PI staining based flow cytometry (reference value: 9.36 %); type: functional
[25] = tested on: PANC-1; experiment: Induction of apoptosis in human PANC-1 cells assessed as late apoptotic cells at 0.5 uM incubated for 48 hrs by Annexin V-FITC/PI staining based flow cytometry (reference value: 3.87 %); type: functional
[26] = tested on: PANC-1; experiment: Induction of cell cycle arrest in human PANC-1 cells assessed as accumulation at S phase at 1 uM incubated for 24 hrs in presence of OL by PI staining based flow cytometry (reference value: 38.94 %); type: functional
[27] = tested on: PANC-1; experiment: Induction of apoptosis in human PANC-1 cells assessed as early apoptotic cells at 0.5 uM incubated for 48 hrs by Annexin V-FITC/PI staining based flow cytometry (reference value: 1.41 %); type: functional
[28] = tested on: PANC-1; experiment: Induction of apoptosis in human PANC-1 cells at 1 uM incubated for 48 hrs in presence of OL by Annexin V-FITC/PI staining based flow cytometry relative to control; type: functional
[29] = tested on: PANC-1; experiment: Induction of apoptosis in human PANC-1 cells assessed as necrotic cells at 0.25 uM incubated for 48 hrs by Annexin V-FITC/PI staining based flow cytometry (reference value: 3.09 %); type: functional
[30] = tested on: PANC-1; experiment: Induction of cell cycle arrest in human PANC-1 cells assessed as accumulation at G2 phase at 1 uM incubated for 24 hrs in presence of OL by PI staining based flow cytometry (reference value: 9.36 %); type: functional
[31] = tested on: PANC-1; experiment: Induction of apoptosis in human PANC-1 cells at 2 uM incubated for 48 hrs by Annexin V-FITC/PI staining based flow cytometry relative to control; type: functional

## O=C1CCC(N2C(=O)c3cccc(NC(=O)CNCCCCCCCCCCC(=O)N4CCN(C(=O)c5cc(Cc6n[nH]c(=O)c7ccccc67)ccc5F)CC4)c3C2=O)C(=O)N1 (stereo not drawn)
[1]
  Activity: Active
[2]
  DC50: 4.74 nM
[2]; dose <= 10.0 µM
  Activity: Dose-dependent-effect
[3]
  Activity: Active
[4]
  inhibition: Active
[5]
  Activity: Active
[6]
  DC50: 2.55 nM
[6]; dose <= 10.0 µM
  Activity: Dose-dependent-effect
[7]
  Activity: Active

## Cc1sc2c(c1C)C(c1ccc(Cl)cc1)=N[C@@H](CC(=O)OC(C)(C)C)c1nnc(C)n1-2
[8]
  Activity: Active
[9]
  Activity: Non-toxic
[10]
  Activity: 4.54%
[11]
  Activity: Active
[12]
  Activity: Toxic
[13]
  Activity: 58.49%
[14]
  Activity: Non-toxic
[15]
  Activity: Non-toxic
[16]
  Activity: Active
[17]
  Activity: Active
[18]
  Activity: 2.94%
[19]
  Activity: 9.46%
[20]
  Activity: Non-toxic
[21]
  Activity: Non-toxic
[22]
  Activity: 10.75%
[23]
  Activity: 40.51%
[24]
  Activity: 13.25%
[25]
  Activity: 10.08%
[26]
  Activity: 25.85%
[27]
  Activity: 3.52%
[28]
  Activity: 26.9%
[29]
  Activity: 2.48%
[30]
  Activity: 15.74%

## O=C(c1cc(Cc2n[nH]c(=O)c3ccccc23)ccc1F)N1CCN(C(=O)C2CC2)CC1 [OLAPARIB]
[31]
  Activity: 8.1%
